Results from a melting point compilation (Tetko et al.).

Row | SMILES | melting point
1 | CC(C)(C)OC(=O)N1CC[C@H](O)C1 | 60 to 62 °C
2 | O=C1CC(=O)Nc2cc(S(=O)(=O)Cl)ccc2N1 | 253 to 255 °C
3 | N#CCCn1cc(C(N)=O)cn1 | 179 to 181 °C
4 | CCCC(C#N)NC(=O)c1ccccc1 (stereo not drawn) | 89 to 91 °C
5 | CSC(=CC(=O)c1cccnc1)SC | 103 to 105 °C
6 | O=C(COc1ccccc1C(=O)O)Nc1ccccc1F | 197 to 199 °C
7 | Cc1cc(-c2ccccc2)nc2cc(O)nn12 | 231 to 233 °C
8 | O=C(O)c1ccccc1S(=O)(=O)N1CCCCC1 | 106 to 108 °C
9 | Cc1cc(=O)[nH]c(-c2ncccn2)n1 | 172 to 174 °C
10 | COC(=O)C(=O)CC(=O)c1ccc(Cl)cc1Cl | 118 to 120 °C
11 | Oc1cccc(CNCC2CC2)c1 | 99 to 101 °C
12 | CC(C)CCc1ccc(S(=O)(=O)Cl)cc1 | 35 to 39 °C
13 | Nc1cccc(-c2nnc[nH]2)c1 | 182 to 184 °C
14 | Cc1sc2ncnc(SCCC(=O)O)c2c1C | 187 to 189 °C
15 | Nc1nc(-c2ccc3ccccc3c2)n[nH]1 | 205 to 207 °C
16 | CC(C)C1CNc2ccccc2N1 (stereo not drawn) | 73 to 75 °C
17 | COCc1ccsc1C(=O)O | 119 to 121 °C
18 | Fc1cccc2[nH]c(C3CCNCC3)nc12 | 229 to 231 °C
19 | CC(=O)Nc1ccc(S(=O)(=O)Cl)cc1[N+](=O)[O-] | 89 to 91 °C
20 | NS(=O)(=O)c1ccc(-n2cccn2)c(F)c1 | 190 to 192 °C

Row | SMILES | melting point
21 | Cc1nc(-c2ccccn2)[nH]c(=O)c1CC(=O)O | 209 to 211 °C
22 | O=C(O)c1ccccc1-c1cncnc1 | 228 to 230 °C
23 | CCCn1ncc(C(=O)O)c1C1CC1 | 119 to 121 °C
24 | CCOC(=O)C(=O)c1cc(Br)ccc1OC | 69 to 71 °C
25 | O=C(O)c1ccc(Oc2cc(Cl)ccc2Cl)cc1 | 169 to 171 °C
26 | N#Cc1ccc2[nH]cc(C=O)c2c1 | 239 to 241 °C
27 | CCCCOc1ccc(C(=O)NC(C(=O)O)C(C)O)cc1 (stereo not drawn) | 130 to 132 °C
28 | O=C(O)c1cc2ccccc2cc1NC(=O)C1CC1 | 235 to 237 °C
29 | Nc1ccc2[nH]c(-c3ccc(F)cc3)nc2c1 | 118 to 120 °C
30 | N#Cc1[nH]c(=O)n(Cc2ccccc2)c1NCc1ccccc1 | 140 to 142 °C
31 | O=C(O)c1cccc(S(=O)(=O)Cc2ccccc2)c1 | 214 to 216 °C
32 | NC(=O)C1CCCN(C(=O)c2cc(Cl)ccc2N)C1 (stereo not drawn) | 229 to 231 °C
33 | N#Cc1ccc2[nH]cnc2c1 | 203 to 205 °C
34 | Cc1ccoc1C(=O)CC#N | 93 to 95 °C
35 | c1ccc2[nH]c(C3CCNCC3)nc2c1 | 253 to 255 °C
36 | Cc1sc(C(N)=O)cc1S(=O)(=O)Cl | 122 to 124 °C
37 | CCn1c(C)cc(C=O)c1C | 87 to 89 °C
38 | CC(Cl)C(=O)c1c[nH]c2ccccc12 (stereo not drawn) | 190 to 192 °C
39 | Nc1cc(Cl)ncn1 | 196 to 198 °C
40 | COc1ccc2c(c1)NC(=O)C2=O | 223 to 225 °C

Row | SMILES | melting point
41 | CNC(=O)c1cccc(C(=O)O)c1 | 232 to 234 °C
42 | O=C1COc2ncccc2N1 | 254 to 256 °C
43 | CCOC(=O)c1ccc(-n2c(C)nc3ccccc3c2=O)cc1 | 173 to 175 °C
44 | Nc1ccc(C(=O)Nc2nccs2)cc1 | 256 to 258 °C
45 | COC(=O)c1ccc(Cl)c(S(=O)(=O)Cl)c1 | 103 to 105 °C
46 | CN(C)S(=O)(=O)c1ccc(S(=O)(=O)Cl)c([N+](=O)[O-])c1 | 153 to 155 °C
47 | O=C(O)CNC1CCS(=O)(=O)C1 (stereo not drawn) | 241 to 243 °C
48 | O=C(O)Cc1csc(NC(=O)c2ccccc2I)n1 | 167 to 169 °C
49 | Cc1ccc(S(=O)(=O)N(C)c2ccc(O)cc2)cc1 | 137 to 139 °C
50 | CC(C)C(=O)N1CCCC1C(=O)O (stereo not drawn) | 118 to 120 °C
51 | COC(=O)c1cncc(I)c1 | 79 to 81 °C
52 | Cc1nc(-c2ccc(F)cc2)sc1C(=O)O | 251 to 253 °C
53 | COC(=O)c1ccc2nnn(O)c2c1 | 166 to 168 °C
54 | Nc1cccc(N2CCCS2(=O)=O)c1 | 85 to 87 °C
55 | COC(=O)COc1ccc(N)c(C)c1 | 104 to 106 °C
56 | Cc1nn(CCCl)c(C)c1C(=O)O | 139 to 141 °C
57 | CCc1cccc2c(C(=O)O)c[nH]c12 | 193 to 195 °C
58 | Cc1cc(O)nc(-c2ccc(-c3ccccc3)cc2)n1 | 275 to 277 °C
59 | O=C(O)Cn1ccc([N+](=O)[O-])n1 | 172 to 174 °C
60 | N#Cc1cccc(CCl)c1 | 67 to 70 °C

The next lines start with the values.

Row | melting point | SMILES
61 | 215 to 217 °C | O=C(O)c1cc(-c2ccco2)nc2onc(C3CC3)c12
62 | 214 to 216 °C | Cn1c(=O)[nH]c(=O)c2cc(S(=O)(=O)Cl)cnc21
63 | 144 to 146 °C | Nc1nc2cc(F)c(F)cc2[nH]1
64 | 194 to 196 °C | Nc1nnc(-c2ccc(Br)cc2F)s1
65 | 51 to 53 °C | N#Cc1cccc(OCC(F)(F)F)n1
66 | 97 to 99 °C | COc1cc(-c2nnc(S)o2)cc(OC)c1OC
67 | 59 to 61 °C | CCS(=O)(=O)N1CCCC(C(=O)O)C1 (stereo not drawn)
68 | 156 to 158 °C | CN1N=C(C(=O)O)CCC1=O
69 | 70 to 74 °C | CN(CCC#N)c1ccc(C=O)cc1
70 | 176 to 178 °C | CN(c1ccccc1)c1ccc(C(=O)O)cn1
71 | 171 to 173 °C | O=C(O)c1nn(-c2ccccc2)c2c1CCCCC2
72 | 117 to 119 °C | CCCCNc1c(N)n(Cc2ccccc2)c(=O)[nH]c1=O
73 | 215 to 217 °C | O=S(=O)(Cc1nc2ccccc2[nH]1)c1ccccc1
74 | 92 to 94 °C | CN(Cc1ccccc1)S(N)(=O)=O
75 | 199 to 201 °C | CC(=O)N1CCN(CC(N)=S)CC1
76 | 119 to 121 °C | NS(=O)(=O)C1CCCNC1 (stereo not drawn)
77 | 107 to 109 °C | Cc1sc(N)nc1C(C)C
78 | 129 to 131 °C | CN(C)C(=O)COc1ccc(N)cc1
79 | 91 to 93 °C | COc1cc(-c2ccccc2)ccc1C=O
80 | 66 to 68 °C | CS(=O)(=O)NCc1cccc(Br)c1
81 | 211 to 213 °C | Cc1cccc2nc(CSc3ccccc3C(=O)O)cc(=O)n12

Row | melting point | SMILES
82 | 147 to 149 °C | NC(=O)N1CCC(O)CC1
83 | 151 to 153 °C | Sc1nnc(N2CCOCC2)n1Cc1ccco1
84 | 239 to 241 °C | O=C(O)c1cccc(=O)[nH]1
85 | 74 to 76 °C | CC(=O)c1cccc(S(=O)(=O)N(C)C)c1
86 | 187 to 189 °C | Cc1cn(C2CC(O)C(CO)O2)c(=O)[nH]c1=O (stereo not drawn)
87 | 99 to 101 °C | COc1ccc(C(=O)C=C(SC)SC)cc1
88 | 39 to 41 °C | Nc1ccn(CC(F)(F)F)n1
89 | 207 to 209 °C | COc1cc(NC(=O)C2CC2C)c(C(=O)O)cc1OC (stereo not drawn)
90 | 163 to 165 °C | O=C(O)c1oc2ccccc2c1COc1ccccc1
91 | 205 to 207 °C | CC(C)c1ccc(-c2nnc(N)s2)cc1
92 | 82 to 84 °C | O=C(O)CCNC(=O)c1ccccc1Cl
93 | 60 to 62 °C | Cc1nc(Cl)c2c(CC(C)C)csc2n1
94 | 75 to 77 °C | CC(C)(C)c1ccc(C2CCCC(O)C2)cc1 (stereo not drawn)
95 | 102 to 104 °C | CCn1cnnc1CNC(=O)OCC(F)(F)F
96 | 141 to 143 °C | CCOC(=O)c1c(Cl)c2ncc(S(=O)(=O)Cl)cc2n1C
97 | 156 to 158 °C | NC(=O)c1ncon1
98 | 50 to 52 °C | O=C1CCCc2c(Br)cccc21
99 | 57 to 59 °C | O=Cc1ccccc1OCc1cccnc1
100 | 109 to 111 °C | CCOC(=O)CN1C(=O)CNC1=O
101 | 125 to 130 °C | Nc1cccc(-c2cn3cccnc3n2)c1
102 | 217 to 219 °C | O=C(O)c1cccc(NS(=O)(=O)c2cc(Cl)ccc2Cl)c1

Row | melting point | SMILES
103 | 222 to 224 °C | O=C(O)CNCC1CC1
104 | 40 to 42 °C | COc1ccc(C=O)cc1OCC(C)C
105 | 119 to 121 °C | NC(=O)C(N)c1ccc(Br)cc1 (stereo not drawn)
106 | 131 to 133 °C | Cc1ccc(N)cc1S(=O)(=O)NC(C)(C)C
107 | 129 to 131 °C | O=C1CCCc2ccccc2N1
108 | 269 to 271 °C | NC(=O)c1cncc(C(=O)O)c1
109 | 185 to 187 °C | Nc1cc(-c2ccco2)nn1-c1cccc([N+](=O)[O-])c1
110 | 193 to 195 °C | NC(=O)N1CCC(C(=O)O)CC1
111 | 37 to 39 °C | CC(C)Cc1ccc(C(=O)CBr)cc1
112 | 128 to 130 °C | N#Cc1cc(Cl)ccc1OC1CCOC1 (stereo not drawn)
113 | 153 to 155 °C | O=C(O)c1ccc2c(c1)C(=O)N(CC1CCCO1)C2=O (stereo not drawn)
114 | 99 to 101 °C | O=C1NCCCC1C(F)(F)F (stereo not drawn)
115 | 88 to 90 °C | CC1(C)CCC(=CC(=O)O)CC1
116 | 87 to 89 °C | O=C(O)CCCc1ccccc1Br
117 | 63 to 65 °C | CC(C)CC(N)C(O)c1cccs1 (stereo not drawn)
118 | 174 to 176 °C | Cc1ccc2c(CCl)cc(=O)oc2c1C
119 | 99 to 101 °C | COc1ccc(N)cc1OCCO
120 | 180 to 182 °C | Cc1[nH]n(-c2ccc(C#N)cc2)c(=N)c1C
121 | 68 to 70 °C | c1ccc(CCNc2nccs2)cc1
122 | 42 to 44 °C | CNC(=O)c1cccc(Cl)n1
123 | 261 to 263 °C | CNc1ccc([N+](=O)[O-])cc1C(=O)O

Row | melting point | SMILES
124 | 61 to 63 °C | Cc1csc(Sc2ccc(N)c(C)c2)n1
125 | 125 to 127 °C | NC(=O)CCCOc1ccc(F)cc1
126 | 206 to 208 °C | O=C(O)C(CO)NS(=O)(=O)c1ccc(Cl)cc1 (stereo not drawn)
127 | 77 to 79 °C | OC(c1cnn(-c2ccccc2)c1)C(F)(F)F (stereo not drawn)
128 | 63 to 65 °C | CCOc1ccc(C(=O)CCl)cc1
129 | 199 to 201 °C | Nc1nnc(-c2ccccn2)[nH]1
130 | 249 to 251 °C | Nc1c(C(=O)O)ccnc1Cl
131 | 122 to 124 °C | CCN(c1ccccc1)S(=O)(=O)c1ccc(Cl)c([N+](=O)[O-])c1
132 | 132 to 134 °C | O=C(Nc1ccc([N+](=O)[O-])cc1Cl)OCC(F)(F)F
133 | 75 to 77 °C | COc1cc(S(=O)(=O)Cl)ccc1[N+](=O)[O-]
134 | 74 to 76 °C | CCOc1ccc(C(C)(C)C(=O)O)cc1OCC
135 | 172 to 174 °C | Sc1nncn1-c1ccccc1
136 | 234 to 236 °C | O=C(NC(Cc1ccc(O)cc1)C(=O)O)c1cnccn1 (stereo not drawn)
137 | 125 to 130 °C | CNC(=O)c1ccc(S(=O)(=O)Cl)cc1
138 | 149 to 151 °C | CC1(CCCC(=O)O)NC(=O)NC1=O (stereo not drawn)
139 | 95 to 97 °C | O=Cc1coc2ccc(F)cc2c1=O
140 | 155 to 157 °C | O=C(CCl)NNC(=O)c1cccc(Cl)c1
141 | 57 to 59 °C | CC(C)(C)c1nn(-c2ccccc2)cc1C=O
142 | 172 to 174 °C | N#Cc1cnc2c(F)ccc(F)c2c1Cl
143 | 179 to 181 °C | CC(C)(C)OC(=O)Nc1cn[nH]c1
